Like-named read-outs stand apart in the source and are kept apart here.
Key:
Drosophila OR47a = biological target: T1, Drosophila OR47a (Drosophila melanogaster, UniProt P81921); assay: Calcium ion fluorescence (GCaMP6) assay, OR47a stable HEK293 cell line; assay type: cell-based; details: for OR47a response (VUAA1-normalized) at 1 μM / OR47a response (VUAA1-normalized) at 10 μM / OR47a response (VUAA1-normalized) at 100 μM / Average response: OR47a cell line; for Average response: mean of biological replicates
T1 construct: expressed in transfected cells
T1 sequence (P81921 1-385): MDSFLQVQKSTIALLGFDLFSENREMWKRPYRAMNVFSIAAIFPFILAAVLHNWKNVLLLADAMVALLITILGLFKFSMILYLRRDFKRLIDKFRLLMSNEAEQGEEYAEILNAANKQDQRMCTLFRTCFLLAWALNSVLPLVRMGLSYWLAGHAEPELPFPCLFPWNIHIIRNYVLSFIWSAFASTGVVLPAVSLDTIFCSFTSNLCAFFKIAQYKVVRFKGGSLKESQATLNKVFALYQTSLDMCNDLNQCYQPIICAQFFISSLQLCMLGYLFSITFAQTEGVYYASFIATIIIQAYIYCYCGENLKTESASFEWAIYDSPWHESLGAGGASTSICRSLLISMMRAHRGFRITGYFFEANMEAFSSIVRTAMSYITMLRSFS
T1 sequence (Q9VNB5 1-486 partner): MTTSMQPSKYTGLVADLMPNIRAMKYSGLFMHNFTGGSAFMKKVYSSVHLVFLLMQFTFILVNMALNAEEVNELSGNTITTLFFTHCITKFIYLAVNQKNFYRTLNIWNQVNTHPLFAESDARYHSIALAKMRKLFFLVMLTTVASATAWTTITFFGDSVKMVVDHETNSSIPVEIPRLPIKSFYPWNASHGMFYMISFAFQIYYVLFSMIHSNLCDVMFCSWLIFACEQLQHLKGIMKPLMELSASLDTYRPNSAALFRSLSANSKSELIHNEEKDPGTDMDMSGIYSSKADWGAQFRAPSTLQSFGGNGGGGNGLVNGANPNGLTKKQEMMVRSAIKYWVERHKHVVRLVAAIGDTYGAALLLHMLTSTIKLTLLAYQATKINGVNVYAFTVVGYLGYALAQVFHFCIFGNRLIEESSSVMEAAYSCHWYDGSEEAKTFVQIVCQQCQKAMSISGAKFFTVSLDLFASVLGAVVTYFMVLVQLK
Description: (§1) These VUAA1 normalized ∆F values were used to compare the different receptors and ligands.
(§2) The concentration-dependent effect of the reference ligands on their cognate cell lines was examined in more detail. Twelve different ligand concentrations were measured on each cell line in an overall 0.01 μM to 100 μM concentration range with 5 repetitions with three technical replicates each time.
(§3) Twelve thousand to 18,000 cells were plated into each well of a black wall, transparent bottom 384-well microplate (Greiner) 48 h or 72 h before the measurements and were simultaneously treated with 1 μg/mL doxycycline. […] The plate has 24 columns, thus we could record responses in up to eight different cell lines in each plate. On the day of the experiment, the growth medium was replaced with 20 µL assay buffer/well (140 mM NaCl, 5 mM KCl, 2 mM CaCl2, 1 mM MgCl2, 5 mM HEPES-Na, 20 mM glucose, pH 7.3, 340 mOsm). […] Baseline fluorescence (F0) was recorded for 5 s, after which 7 µL VOC buffer (140 mM NaCl, 5 mM KCl, 2 mM CaCl2, 1 mM MgCl2, 5 mM HEPES-Na, 31 mM glucose, 0.1% DMSO, pH 7.3, 340 mOsm) was injected into each well in one row and the fluorescence response was recorded for an additional 30 s, at a rate of one read/sec. VOC solutions (VOC buffer with 4× concentration of the final measured VOC concentration, 9 µL/well was injected) were measured on the same wells in a second round with the same protocol. Each individual concentration of a specific VOC sample was recorded in three wells for the same cell line on the same microplate. The raw data were exported in xls file format, F0 and FMAX values, and the fluorescence intensity changes (∆F) were calculated in Excel (Microsoft) (Supplementary file Data summary.xlsx) using the following equation: ΔF=FMAX-F0/F0 (see also Fig. 1C). On each plate, we recorded the response of each cell line to 50 µM VUAA1. The average of these ∆F values of each cell line were used to calculate the VUAA1-normalized values for the rest of the plate, by dividing VOC response ∆F values by the average VUAA1 response ∆F value of the corresponding OR cell line. Each VOC-OR combination was measured three times as technical replicates. […] The average of these replicates were used as one ∆F and VUAA1-normalized ∆F in the following analysis.
(§4) In the next rows we tested the reference VOCs (or other VOCs known to activate the corresponding cell lines), in order to test if all cell lines are responsive. The remaining rows were used to test VOCs with unknown effect.
(§5) The recorded FMAX, F0, ∆F, VUAA1-normalized ∆F values, as well as the OR name, the name of the tested sample, and the final concentration for each well were copied into supplementary file Data summary.xlsx, that was used to summarize all the plates recorded. Here, the averages of the measurements were calculated for each receptor-VOC-concentration combination.

Drosophila OR98a = biological target: T2, Drosophila OR98a (Drosophila melanogaster, UniProt Q9VAZ3); assay: Calcium ion fluorescence (GCaMP6) assay, OR98a stable HEK293 cell line; assay type: cell-based; details: for OR98a response (VUAA1-normalized) at 1 μM / OR98a response (VUAA1-normalized) at 10 μM / OR98a response (VUAA1-normalized) at 100 μM: OR98a cell line
T2 construct: expressed in transfected cells
T2 sequence (Q9VAZ3 1-397): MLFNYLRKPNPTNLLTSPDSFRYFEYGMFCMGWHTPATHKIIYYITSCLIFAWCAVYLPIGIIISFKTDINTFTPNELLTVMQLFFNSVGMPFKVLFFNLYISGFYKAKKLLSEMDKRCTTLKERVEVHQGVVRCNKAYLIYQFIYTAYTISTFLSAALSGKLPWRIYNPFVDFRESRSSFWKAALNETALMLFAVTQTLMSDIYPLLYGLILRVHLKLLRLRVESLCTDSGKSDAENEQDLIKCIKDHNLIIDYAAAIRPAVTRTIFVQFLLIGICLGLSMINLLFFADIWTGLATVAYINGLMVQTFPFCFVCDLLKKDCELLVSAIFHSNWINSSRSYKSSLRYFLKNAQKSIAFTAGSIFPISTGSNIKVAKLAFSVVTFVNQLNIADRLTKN
T2 sequence (Q9VNB5 1-486 partner): T1 sequence (Q9VNB5 1-486 partner)
Description: as §1, §2, §3, §4, §5

[1] = ligand concentration 1 (unit not given), 0.05 threshold, values below shown as 0
[2] = ligand concentration 10 (unit not given), 0.05 threshold, values below shown as 0
[3] = ligand concentration 100 (unit not given), 0.05 threshold, values below shown as 0
[4] = HEK293, read-out: Average response
[5] = HEK293, read-out: OR47a response (VUAA1-normalized response)
[6] = concentration 1, normalized fluorescence change, values below 0.05 threshold given as 0
[7] = concentration 10, normalized fluorescence change, values below 0.05 threshold given as 0
[8] = concentration 100, normalized fluorescence change, values below 0.05 threshold given as 0
[9] = HEK293, read-out: OR98a response (VUAA1-normalized response)
[10] = HEK293, read-out: OR47a Average response (VUAA1-normalized)

Compound | OR47a response (VUAA1-normalized) at 1 μM (Drosophila OR47a; VOC concentration 1 μM) | OR47a response (VUAA1-normalized) at 10 μM (Drosophila OR47a; VOC concentration 10 μM) | Average response (Drosophila OR47a; odorant cc. 1 µM) | Average response (Drosophila OR47a; odorant cc. 10 µM) | Average response (Drosophila OR47a; odorant cc. 100 µM) | activation at 1 µM (Drosophila OR98a; [4]) [%] | activation at 10 µM (Drosophila OR98a; [4]) [%] | activation at 100 µM (Drosophila OR98a; [4]) [%] | activation at 1 µM (Drosophila OR47a; [5]) [%] | activation at 10 µM (Drosophila OR47a; [5]) [%] | activation at 100 µM (Drosophila OR47a; [5]) [%] | DF norm AVERAGE OR47a (Drosophila OR47a; [6]) | DF norm AVERAGE OR47a (Drosophila OR47a; [7]) | DF norm AVERAGE OR47a (Drosophila OR47a; [8]) | activation at 1 µM (Drosophila OR98a; [9]) [%] | activation at 10 µM (Drosophila OR98a; [9]) [%] | activation at 100 µM (Drosophila OR98a; [9]) [%] | DF norm AVERAGE OR98a (Drosophila OR98a; [6]) | DF norm AVERAGE OR98a (Drosophila OR98a; [7]) | DF norm AVERAGE OR98a (Drosophila OR98a; [8]) | also measured
CC1=CCC23CC1C(C)(C)C2CCC3C (stereo not drawn) [α-funebrene] | 0.00 | 0.00 | 0.00 | 0.00 | 0.00 | 0 | 9 | 5 |  |  |  |  |  |  |  |  |  |  |  |  | OR47a response (VUAA1-normalized) at 100 μM (Drosophila OR47a; VOC concentration 100 μM): 0.00; DF norm AVERAGE OR47a (Drosophila OR47a; [1]): 0; DF norm AVERAGE OR47a (Drosophila OR47a; [2]): 0; DF norm AVERAGE OR47a (Drosophila OR47a; [3]): 0; OR98a response (VUAA1-normalized) at 1 μM (Drosophila OR98a; VOC concentration 1 μM): 0.00; OR98a response (VUAA1-normalized) at 10 μM (Drosophila OR98a; VOC concentration 10 μM): 0.09; OR98a response (VUAA1-normalized) at 100 μM (Drosophila OR98a; VOC concentration 100 μM): 0.05; DF norm AVERAGE OR98a (Drosophila OR98a; [1]): 0; DF norm AVERAGE OR98a (Drosophila OR98a; [2]): 0.08582; DF norm AVERAGE OR98a (Drosophila OR98a; [3]): 0.05199
CCCCCCCCCCC [undecane] | 0.00 | 0.00 | 0.00 | 0.00 | 0.00 | 2.26 | 0 | 8 |  |  |  |  |  |  |  |  |  |  |  |  | OR47a response (VUAA1-normalized) at 100 μM (Drosophila OR47a; VOC concentration 100 μM): 0.00; DF norm AVERAGE OR47a (Drosophila OR47a; [1]): 0; DF norm AVERAGE OR47a (Drosophila OR47a; [2]): 0; DF norm AVERAGE OR47a (Drosophila OR47a; [3]): 0; OR98a response (VUAA1-normalized) at 1 μM (Drosophila OR98a; VOC concentration 1 μM): 0.00; OR98a response (VUAA1-normalized) at 10 μM (Drosophila OR98a; VOC concentration 10 μM): 0.00; OR98a response (VUAA1-normalized) at 100 μM (Drosophila OR98a; VOC concentration 100 μM): 0.08; DF norm AVERAGE OR98a (Drosophila OR98a; [1]): 0; DF norm AVERAGE OR98a (Drosophila OR98a; [2]): 0; DF norm AVERAGE OR98a (Drosophila OR98a; [3]): 0.08228
CC/C=C\CCO [E-3-hexenol] |  |  |  |  |  |  |  |  |  |  |  |  |  |  |  |  |  |  |  |  | OR47a response (VUAA1-normalized response) (Drosophila OR47a; VOC concentration 1 μM): 0.06; OR47a response (VUAA1-normalized response) (Drosophila OR47a; VOC concentration 10 μM): 0.00; OR47a response (VUAA1-normalized response) (Drosophila OR47a; VOC concentration 100 μM): 0.14; OR98a response (VUAA1-normalized response) (Drosophila OR98a; VOC concentration 1 μM): 0.00; OR98a response (VUAA1-normalized response) (Drosophila OR98a; VOC concentration 10 μM): 0.00; OR98a response (VUAA1-normalized response) (Drosophila OR98a; VOC concentration 100 μM): 0.00
C=C1CC/C=C(\C)CC[C@@H]2[C@@H]1CC2(C)C [(-)-trans-caryophyllene] |  |  | 0.0166 | 0.0326 | 0.00 | 7 | 6 | 6 | 0 | 0 | 0 | 0 | 0 | 0 | 7 | 6 | 6 | 0.06975 | 0.06201 | 0.05748 | 
CCCC(O)CC (stereo not drawn) [3-hexanol] |  |  | 0.00 | 0.00 | 0.11 | 0 | 19 | 1.15 | 0 | 0 | 11 | 0 | 0 | 0.1087 | 0 | 19 | 0 | 0 | 0.194 | 0 | activation at 1 µM (Drosophila OR47a; [10]): 0%; activation at 10 µM (Drosophila OR47a; [10]): 0%; activation at 100 µM (Drosophila OR47a; [10]): 11%
CCCCCO [1-pentanol] |  |  | 0.00 | 0.00 | 0.00 | 0 | 2.81 | 0 | 0 | 0 | 0 | 0 | 0 | 0 | 0 | 0 | 0 | 0 | 0 | 0 | 

From paper PMC10709440, “High-throughput ligand profile characterization in novel cell lines expressing seven heterologous insect olfactory receptors for the detection of volatile plant biomarkers” (Scientific Reports, 2023)
